The values below come from patent US20130231312A1, “TREATMENT OF TYPE II DIABETES AND DIABETES-ASSOCIATED DISEASES WITH SAFE CHEMICAL MITOCHONDRIAL UNCOUPLERS” (priority 2010, published 2013).

In data set [1] the test system is db/db mice. The data set is described as follows: Acute I.P. CSAA treatment, blood glucose in diabetic db/db mice. It is filed as in vivo. To be noted: 100 microgram/mouse I.P. The source says:
(§1) The 5-week old db/db mice and the C57/B16 mice were purchased from Jackson Laboratory and housed in the vivarium of UMDNJ-RWJMS. […] For food intake experiments, sets of mice were housed individually in metabolic cages (Nalgene) with free access to food and water. Food cups and food scattered in the runway to the cups were weighed daily to determine food intake. For mouse tissue studies, mice were sacrificed by decapitation, and the tissues of interesting were obtained.
(§2) Blood glucose was determined using OneTouch UltraSmart blood glucose monitoring system (Lifescan), and the insulin levels were measured by ultra sensitive mouse insulin ELISA kit (Crystal Chem Inc.), following the manufacturer's instructions.

The test system of data set [2] is high-fat diet induced pre-diabetic C57/B16 mice. The data set is described as follows: Acute I.P. treatment, blood glucose in high-fat diet induced pre-diabetic mice. Type of data set: in vivo. The conditions noted are these: 100 microgram/mouse I.P., starved 5 hours.
Text: as §1, §2

In data set [3] the test system is AMPK. The data set is described as follows: Immunoblotting of phosphorylated AMPK in liver after acute I.P. CSAA. It is filed as in vivo. To be noted: mouse liver, acute 100 microgram/mouse I.P., 0, 2, 4 hours. As to the method: (§3) Immunoblotting assays were carried out according to standard protocol. The sources of the antibodies are: AMPK antibody (Cell Signaling Technology), Thr-172-phosphorylated AMPK antibody (Cell Signaling Technology), Ran antibody (C-20, Santa Cruz).

For the next data set, the system named is C57/B16 mice. The data set is described as follows: Glucose uptake assay with 3H 2-deoxyglucose in tissues. Type of data set: in vivo. To be noted: acute 100 microgram/mouse I.P., 3H-2-deoxyglucose 1.5 hours later.
Data set [4] relates to db/db mice. The data set is described as follows: Chronic oral CSAA treatment of db/db diabetic mice. It is filed as in vivo, mouse.
Text: as §1, §2

For data set [5], the system named is C57/B16 mice fed with high-fat diet. The experiment in a line: Chronic oral CSAA treatment of high-fat diet induced pre-diabetic mice. Type of data set: in vivo, mouse.
Text: as §1, §2

For data set [6] the test system is unchanged. The experiment in a line: Glucose tolerance assay after chronic oral CSAA. It is filed as in vivo, mouse. To be noted: high-fat diet containing 1500 ppm CSAA for 9 weeks. As to the method:
(§4) For glucose tolerance tests, mice were starved overnight and injected I.P. with 20% glucose at a dose of 2 g/kg body weight. Blood was obtained from the tail at time points 0, 15, 30, 60, 90, and 120 min for glucose measurement. For insulin tolerance tests, mice were starved for 5 h and injected I.P. with 0.75 U/kg body weight recombinant human insulin (Eli Lilly). Blood was obtained from the tail at time points 0, 15, 30, 60, 90, and 120 min for glucose measurement.

The test system is the same in data set [7]. The data set is described as follows: Insulin tolerance assay after chronic oral CSAA. Type of data set: in vivo, mouse. The conditions noted are these: high-fat diet containing 1500 ppm CSAA for 9 weeks. As to the method:
as §4

The subject of data set [8] is AMPK. The data set is described as follows: Immunoblotting of phosphorylated AMPK in liver after chronic oral CSAA. It is filed as in vivo, mouse. The conditions noted are these: mice under high-fat diet. As to the method: as §3
A short description of data set [9]: Chronic I.P. CSAA injection, high-fat diet induced body weight gain and food uptake. Type of data set: in vivo. The conditions noted are these: daily I.P. 100 μg/mouse.
Text: as §1
The other 12 mice were injected daily with vehicle only (PBS). The body weight was measured twice a week and the net body weight gain for each mouse was determined. The average weight gain in each group over the experimental period was plotted. […] The food uptake levels were measured daily with metabolic cages from the day 15 to day 29 and the average daily food uptake of each group was calculated.

Data set [10] concerns mitochondria isolated from mouse liver. The data set is described as follows: Mitochondrial uncoupling assay with isolated mitochondria (oxygen consumption, Oxygraph). To be noted: oligomycin 5 μg/ml. It is filed as biochemical. The protocol:
For mitochondrial uncoupling assay with isolated mitochondria: Mitochondria were isolated from mouse liver. 1.0 mg of mitochondria in a volume of 0.9 ml of respiration buffer was analyzed for oxygen consumption in the presence of mitochondrial substrate as well as the various inhibitors with an Oxygraph System (Hansatech Instrument, Norfolk, UK). The final concentrations of the various chemicals added into the respiration buffer are as follows: succinate, 5 mM; ADP, 125 μM; oligomycin, 5 μg/ml; KCN, 2 mM)

For data set [11], the system named is NIH-3T3 cells. The data set is described as follows: Mitochondrial membrane potential (TMRE staining) in cultured cells. Type of data set: cell-based, mouse. The protocol: For mitochondrial uncoupling activity analysis with the cultured cells, the NIH-3T3 were culture to 90% confluence. […] The cells were then treated with TMRE (Tetramethylrhodamine ethyl ester perchlorate) to a final concentration of 100 nM, incubate for 15 minutes. The cells were then washed twice with PBS, and the pictures were taken under microscope.

In data set [12] the test system is NIH-3T3 cells. The experiment in a line: Cellular oxygen consumption (BD Oxygen Biosensor System). Type of data set: cell-based, mouse. As to the method:
(§5) BD™ Oxygen Biosensor System was used to measure the cellular oxygen consumption. NIH-3T3 cells were cultured overnight to log phase, then seeded in oxygen biosensor 96-well plate at the density of 20000 cells per well in DMEM medium. […] Oxygen consumptions (decrease in oxygen concentrations) were indicated by generation of fluorescent signals which were initially quenched by oxygen. Cellular ATP concentrations were measured with the ENLITEN® ATP Assay System and normalized against cell number.

The test system of data set [13] is NIH-3T3 cells. The data set is described as follows: Cellular ATP concentrations (ENLITEN ATP Assay System). It is filed as cell-based, mouse. The conditions noted are these: CSAA 1 μM. The protocol:
as §5

In a further data set the test system is hepatocytes. To be noted: high-fat diet containing 1500 ppm CSAA for 10 weeks.
The conditions of data set [14]: among the first 100,000 persons treated; cited from earlier work.
In the next data set the test system is mitochondria. The conditions noted are these: cited from earlier work.
Setting [15] is: stated for both mouse strains (FIG. 1).
The mark [16] stands for this setting: high-fat diet containing 1500 ppm CSAA for 8 weeks.
[17] abbreviates: NIH-3T3 cells, 2 hours treatment, TMRE.

The structures appear in SMILES notation.

Text for hepatocytes: For mouse liver histological study, the mice sacrificed by decapitation. Liver slices were fixed with buffered formalin (Surgipath Medical Industries, Inc.) and embedded in paraffin. Tissue slides were stained with hematoxylin and eosin (H&E) for detection of lipid droplets in tissue samples. Pictures were taken with a Universal Microscope Axioplan 2 imaging system (Carl Zeiss) with phase contrast objectives.

In the case of `NCCO.O=C(Nc1ccc([N+](=O)[O-])cc1Cl)c1cc(Cl)ccc1O` [CSAA, 5-chloro-salicyl-(2-chloro-4-nitro) anilide 2-aminoethanol salt], in the data set on db/db mice [1] (setting [15]), the “time after treatment at which blood glucose concentrations were lowered” value was roughly 1 h and the “time until which blood glucose lowering remained effective” value is on record as “about 4 hours”. Also, the “reduction in blood glucose as compared to the control” value in the data set on db/db mice [1] (db/db mice, starved 5 hours) is 30%. Moreover, the “effect on blood glucose concentration (hypoglycemic activity)” value in [2] is listed as “dramatic decrease in blood glucose concentration”. Also, the “levels of the phosphorylated AMPK” value with AMPK [3] is “dramatically increased”. In the data set on C57/B16 mice, the “glucose uptake rates in liver, muscles, kidney, and lungs” value is listed as “significantly increased”. Also, the “food intake rates versus mice fed normal food” value in the data set on db/db mice [4] (1500 ppm in food) was “not significantly different”. In the data set on db/db mice [4] (oral CSAA (data not shown)), the “body weight and adiposity versus control mice” value is on record as “not different from the control mice”. The “fasting blood glucose levels versus non-CSAA treated mice at later time” value in the data set on db/db mice [4] (oral treatment beyond two weeks (data not shown)) was “remained significantly lower”. In the data set with db/db mice [4] (two week oral treatment, 1500 ppm in AIN-93M food), the fasting blood glucose entry is “reduced the fasting blood glucose of the db/db mice to almost normal levels”. In data set [5] (setting [16]), the fasting blood glucose result is recorded as “completely prevented the increase of fasting blood glucose” and the “fasting insulin concentrations versus control group” value is “significantly lower”. In data set [5] (high-fat diet containing 1500 ppm CSAA, weeks 7 to 8), the food uptake result was “no effect”. The “body weight and adiposity versus control mice” value in data set [5] (high-fat diet with oral CSAA (data not shown)) is reported as “not different from the control mice”. In addition, the “insulin sensitivity by glucose tolerance assay” value in data set [6] is reported as “significantly increased insulin sensitivity”. The “insulin sensitivity by insulin tolerance assay” value in [7] is on record as “significantly increased insulin sensitivity”. In addition, in the data set with AMPK [8], the “AMPK activity in liver” value is “chronically elevated”. In [9] (day 15 to day 29), the “food uptake rate versus vehicle group” value is “higher food uptake rate”. Besides, the “weight gain induced by high-fat diet” value in data set [9] (mice aged 8 months on high-fat diet) was “reduces the weight gain”. For the same compound, in data set [10], the “mitochondrial oxygen consumption in the presence of oligomycin” value was “still effectively promoted mitochondrial oxygen consumption”. Moreover, the “earliest time at which dissipation of mitochondrial membrane potential is seen” value in the data set on NIH-3T3 cells [11] (NIH-3T3 cells, 2 μM CSAA) stood at 5 min. Besides, in the data set on NIH-3T3 cells [11] (setting [17]), the “concentration at which reduction of mitochondrial membrane potential starts” value was found to be 500 nM and the “concentration for full uncoupling of mitochondria” value is on record as “around 5 micromolar”. The “concentration range at which mitochondria are uncoupled in cultured cells” value in the data set on NIH-3T3 cells [11] (cultured cells) is listed as “high nanomolar to low micromolar range”. Also, in the data set with NIH-3T3 cells [12] (CSAA 1 μM), the cellular oxygen consumption entry was “dramatically stimulated”. The “effect of oligomycin co-treatment on CSAA-stimulated oxygen consumption” value with NIH-3T3 cells [12] (CSAA 1 μM and oligomycin 5 μg/ml) is given as “did not significantly affect”. Moreover, the “steady-state ATP concentrations in cells” value with NIH-3T3 cells [13] is “does not affect”. For the same compound, the “lipid load in hepatocytes” value in the data set on hepatocytes is “dramatically reduced”.

For the compound `O=[N+]([O-])c1ccc(O)c([N+](=O)[O-])c1` [DNP, 2,4-dinitrophenol], the “fatalities due to hyperthermia” value in data set [14] is reported as “two fatalities”. Besides, in the data set on mitochondria, the “concentrations at which the mitochondrial uncoupler functions” value is “mini molar concentrations”.
